Measured values: ChEMBL document CHEMBL1138774, “Potent and selective ketoamide-based inhibitors of cysteine protease, cathepsin K” (J Med Chem, 2004)

Columns and labels:
[1] = biological target: T1, Cathepsin K (Homo sapiens, UniProt P43235); assay: Inhibitory potency against human Cathepsin K
T1 sequence (P43235 whole entry): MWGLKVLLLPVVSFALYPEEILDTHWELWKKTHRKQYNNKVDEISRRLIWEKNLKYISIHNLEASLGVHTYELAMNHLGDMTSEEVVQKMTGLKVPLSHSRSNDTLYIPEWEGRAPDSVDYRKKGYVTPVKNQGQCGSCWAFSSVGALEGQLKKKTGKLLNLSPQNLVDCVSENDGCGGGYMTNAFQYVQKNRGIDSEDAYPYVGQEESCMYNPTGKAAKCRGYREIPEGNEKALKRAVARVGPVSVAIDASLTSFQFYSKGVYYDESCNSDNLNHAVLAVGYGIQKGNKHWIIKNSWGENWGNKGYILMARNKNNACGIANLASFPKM

[2] = biological target: Cathepsin (H and K) (Homo sapiens) (UniProt P09668+P43235); assay: Selectivity for human cathepsin H over human cathepsin K; assay type: protein assay
[3] = biological target: Cathepsin (L and K) (Homo sapiens) (UniProt P43235+P07711); assay: Selectivity for human cathepsin L over human cathepsin K; assay type: protein assay
[4] = biological target: Cathepsin (S and K) (Homo sapiens) (UniProt P25774+P43235); assay: Selectivity for human cathepsin S over human cathepsin K; assay type: protein assay
[5] = biological target: Cathepsin (V and K) (Homo sapiens) (UniProt P43235+O60911); assay: Selectivity for human cathepsin V over human cathepsin K; assay type: protein assay
[6] = biological target: Cathepsin (B and K) (Homo sapiens) (UniProt P43235+P07858); assay: Selectivity for human cathepsin B over human cathepsin K; assay type: protein assay

Cathepsin (S and K) (Homo sapiens), sequence (P25774 whole entry, looked up, one chain of several): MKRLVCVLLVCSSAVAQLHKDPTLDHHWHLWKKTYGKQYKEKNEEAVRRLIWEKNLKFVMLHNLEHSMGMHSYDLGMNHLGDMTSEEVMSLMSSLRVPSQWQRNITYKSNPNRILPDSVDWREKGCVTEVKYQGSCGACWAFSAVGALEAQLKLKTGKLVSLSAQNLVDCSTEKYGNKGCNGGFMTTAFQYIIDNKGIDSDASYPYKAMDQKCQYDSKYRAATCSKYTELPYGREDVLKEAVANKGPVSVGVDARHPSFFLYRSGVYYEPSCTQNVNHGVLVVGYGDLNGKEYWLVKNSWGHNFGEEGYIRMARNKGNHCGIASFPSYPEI
Cathepsin (H and K) (Homo sapiens), sequence (P09668 whole entry, looked up, one chain of several): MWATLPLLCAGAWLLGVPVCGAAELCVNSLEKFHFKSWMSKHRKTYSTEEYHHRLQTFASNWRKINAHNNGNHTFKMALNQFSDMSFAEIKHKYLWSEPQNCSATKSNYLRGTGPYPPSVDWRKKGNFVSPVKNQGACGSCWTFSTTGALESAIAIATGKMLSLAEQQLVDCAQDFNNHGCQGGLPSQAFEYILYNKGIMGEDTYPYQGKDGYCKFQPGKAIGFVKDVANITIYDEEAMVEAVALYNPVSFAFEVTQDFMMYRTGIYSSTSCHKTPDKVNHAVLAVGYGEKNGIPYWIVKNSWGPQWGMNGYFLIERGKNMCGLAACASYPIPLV
Cathepsin (L and K) (Homo sapiens), sequence (P07711 whole entry, looked up, one chain of several): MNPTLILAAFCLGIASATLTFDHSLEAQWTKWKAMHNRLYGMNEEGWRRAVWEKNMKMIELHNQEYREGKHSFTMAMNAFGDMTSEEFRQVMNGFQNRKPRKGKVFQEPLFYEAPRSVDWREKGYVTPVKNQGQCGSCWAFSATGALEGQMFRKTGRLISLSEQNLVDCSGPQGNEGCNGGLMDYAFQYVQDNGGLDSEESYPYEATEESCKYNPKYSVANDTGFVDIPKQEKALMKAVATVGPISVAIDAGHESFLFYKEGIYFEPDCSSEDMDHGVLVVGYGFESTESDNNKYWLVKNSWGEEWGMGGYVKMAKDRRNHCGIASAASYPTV
Cathepsin (V and K) (Homo sapiens), sequence (O60911 whole entry, looked up, one chain of several): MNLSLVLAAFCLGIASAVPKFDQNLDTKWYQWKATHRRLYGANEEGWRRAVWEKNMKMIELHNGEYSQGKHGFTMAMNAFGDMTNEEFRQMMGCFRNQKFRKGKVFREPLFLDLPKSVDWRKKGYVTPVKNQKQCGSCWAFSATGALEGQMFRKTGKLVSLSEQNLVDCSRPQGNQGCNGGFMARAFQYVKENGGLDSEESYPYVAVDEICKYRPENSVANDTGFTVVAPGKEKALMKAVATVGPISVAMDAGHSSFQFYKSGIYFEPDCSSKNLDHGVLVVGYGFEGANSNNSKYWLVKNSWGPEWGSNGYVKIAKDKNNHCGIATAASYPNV

Compound | IC50 [1] [µM] | Selectivity [2] | Selectivity [3] | Selectivity [4] | Selectivity [5] | Selectivity [6]
CCCC[C@H](NC(=O)OCC1(CC)CCC1)C(=O)C(=O)Nc1ccnn1C1CCC1 | 0.045 | > 280 | 270 | 14 | 49 | > 280
CCCC[C@H](NC(=O)OCC1(CC)CCC1)C(=O)C(=O)Nc1ccnn1CC1CC1 | 0.051 | > 250 | > 250 | 33 | 102 | > 250
CCCC[C@H](NC(=O)OCC1(CC)CCC1)C(=O)C(=O)Nc1ccnn1CC(C)C | 0.076 | > 170 | > 170 | 14 | 89 | > 170

Continued, values first:

IC50 [1] [µM] | Selectivity [2] | Selectivity [3] | Selectivity [4] | Selectivity [5] | Selectivity [6] | Compound
0.068 |  |  |  |  |  | CCCC[C@H](NC(=O)OCC1(CC)COC1)C(=O)C(=O)N[C@H](C)c1ccccc1
0.02 |  |  |  |  |  | CCCC[C@H](NC(=O)OCC1(CC)CCC1)C(=O)C(=O)Nc1ccon1
0.01 |  |  |  |  |  | CCCC[C@H](NC(=O)OCC1(CC)COC1)C(=O)C(=O)Nc1cc(-c2ccccc2)n[nH]1
